Source: patent publication US20210395256A1, “TYROSINE KINASE INHIBITORS, COMPOSITIONS AND METHODS THERE OF” (Betta Pharmaceuticals Co., Ltd., priority 2018, published 2021)

Columns and labels:
[1] = Plasma protein binding (equilibrium dialysis), human; format: in vitro ADME; details: for recovery at 6 h, 1 μM / fraction unbound at 6 h, 1 μM: pH 7.4, human plasma, 6 hours dialysis; for fraction unbound at 6 h, 1 μM: read-out: Mean % Bound Human (converted)
Method: (§1) Example 204 Plasma Protein Binding Measurements
(§2) The plasma protein binding was measured as the following procedure.
(§3) 1) Preparation of 100 mM sodium phosphate and 150 mM NaCl buffer (PBS)
(§4) A basic solution was prepared by dissolving 14.2 g/L Na2HPO4 and 8.77 g/L NaCl in deionized water and the solution could be stored at 4° C. for up to 7 days. An acidic solution was prepared by dissolving 12.0 g/L NaH2PO4 and 8.77 g/L NaCl in deionized water and the solution could be stored at 4° C. for up to 7 days. The basic solution was titrated with the acidic solution to pH 7.4 and store at 4° C. for up to 7 days. pH was checked on the day of experiment and was adjusted if outside specification of 7.4±0.1.
(§5) Frozen plasma was thawed immediately at room temperature.
(§6) The plasma was centrifuged at 3,220 g for 10 minutes to remove clots and supernatant was collected into a fresh tube. The pH of the plasma was checked and recorded.
(§7) Note: a). Only use plasma that has been thawed no more than twice since arrival. b). Only use plasma within the range of pH 7 to pH 8.
(§8) 3) Preparation of working solutions
(§9) The working solutions of test compounds and control compound ketoconazole were prepared in DMSO at the concentration of 200 μM. And then 3 μL of working solution was removed to mix with 597 μL of human, rat or mouse plasma to achieve a final concentration of 1 μM (0.5% DMSO). Plasma samples were vortexed thoroughly.
(§10) 4) Preparation of dialysis membranes
(§11) The dialysis membranes were soaked in ultrapure water for 60 minutes to separate strips, then in 20% ethanol for 20 minutes, finally in dialysis buffer for 20 minutes.
(§12) 5) Procedure for equilibrium dialysis
(§13) The dialysis apparatus was assembled according to the manufacturer's instruction. Each cell was filled with 120 μL of plasma sample and dialyzed against equal volume of dialysis buffer (PBS). The assay was performed in duplicate. The dialysis plate was sealed and incubated in an incubator at 37° C. with 5% CO2 at 100 rpm for 6 hours. At the end of incubation, seal was removed and 50 μL of samples from both buffer and plasma chambers were transferred to wells of a 96-well plate.
(§14) 6) Procedure for sample analysis
(§15) 50 μL of blank plasma was added to each buffer samples and an equal volume of PBS was supplemented to the collected plasma sample. 300 μL of room temperature quench solution (acetonitrile containing internal standards (1S, 100 nM Alprazolam, 500 nM Labetalol and 2 μM Ketoprofen)) was added to precipitate protein. Samples in plate were vortexed for 5 minutes and centrifuged at 3,220 g for 30 minutes at 4° C. And then 100 μL of the supernatant was transferred to a new 96-well plate with 100 μL or 200 μL water (depends on the LC-MS signal response and peak shape) for LC-MS/MS analysis.
(§16) Calculate the percentages of test compound and control compound bound as follows:
(§17) % Free=(Peak Area Ratiobuffer chamber/Peak Area Ratioplasma chamber)*100
(§18) % Recovery=(Peak Area Ratiobuffer chamber+Peak Area Ratioplasma chamber)/Peak Area Ratio total sample*100
(§19) Peak Area Ratiobuffer chamber means the conc for free fraction
(§20) Peak Area Ratioplasma chamber means the conc for both free and bound fraction
(§21) Peak Area Ratiototal sample means the conc for starting sample before incubation

[2] = Plasma protein binding (equilibrium dialysis), mouse; format: in vitro ADME; details: pH 7.4, 6 hours dialysis; for fraction unbound at 6 h, 1 μM: read-out: Mean % Bound Mouse (converted)
Method: as §1, §2, §3, §4, §5, §6, §7, §8, §9, §10, §11, §12, §13, §14, §15, §16, §17, §18, §19, §20, §21

[3] = Plasma protein binding (equilibrium dialysis), rat; format: in vitro ADME; details: pH 7.4, 6 hours dialysis; for fraction unbound at 6 h, 1 μM: read-out: Mean % Bound Rat (converted)
Method: as §1, §2, §3, §4, §5, §6, §7, §8, §9, §10, §11, §12, §13, §14, §15, §16, §17, §18, §19, §20, §21

[4] = biological target: T1, Ba/F3-TPM3-NTRK1 (Homo sapiens, UniProt P04629); assay: Ba/F3-TPM3-NTRK1 cells proliferation assay; format: cell-based; details: 72 h, CellTiter Glo
T1 construct: expressed in transfected cells; host or cells: Ba/F3; the other entry of the earlier key: TPM3 (P06753, Tropomyosin alpha-3 chain)
In short: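 Ba/F3 cells stably expressing TPM3-NTRK1 or ETV6-NTRK3 fusions, 2000/well, exposed 72 h to compound at 300 to 0.05 nM final (3-fold series, 0.5% DMSO). Viability by CellTiter-Glo luminescence; IC50 by four-parameter nonlinear regression.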

T1 sequence (P04629 510-796 limits assumed): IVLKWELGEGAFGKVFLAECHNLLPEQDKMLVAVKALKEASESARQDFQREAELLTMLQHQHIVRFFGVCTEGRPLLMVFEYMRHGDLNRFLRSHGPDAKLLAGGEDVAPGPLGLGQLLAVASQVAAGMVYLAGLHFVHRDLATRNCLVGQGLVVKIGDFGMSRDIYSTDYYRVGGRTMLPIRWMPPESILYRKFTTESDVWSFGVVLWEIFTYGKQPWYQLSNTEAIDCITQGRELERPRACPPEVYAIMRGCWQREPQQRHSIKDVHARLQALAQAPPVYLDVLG

| degree of plasma protein binding (in words) ([1]; as shown in Table 16) | recovery at 6 h, 1 μM [1] | fraction unbound at 6 h, 1 μM [1] | recovery at 6 h, 1 μM [2] | fraction unbound at 6 h, 1 μM [2] | recovery at 6 h, 1 μM [3] | fraction unbound at 6 h, 1 μM [3] | IC50 [4] | Compound |
| --- | --- | --- | --- | --- | --- | --- | --- | --- |
| – | – | 0.0691 | – | 0.0443 | – | 0.1 | 3.55 nM | C[C@H](O)c1nnc(-c2cnn3ccc(N4CCC[C@@H]4c4cc(F)ccc4F)nc23)[nH]1 [Compound 4, (S)-1-(5-(5-((R)-2-(2,5-difluorophenyl)pyrrolidin-1-yl)pyrazolo[1,5-a]pyrimidin-3-yl)-4H-1,2,4-triazol-3-yl)ethan-1-ol] |
| – | 89.3% | 0.284 | 85.5% | 0.244 | 87.5% | 0.289 | 13.6 nM | C[C@H](N)c1nnc(-c2cnn3ccc(N4CCC[C@@H]4c4cc(F)ccc4F)nc23)[nH]1 [Compound 11, (S)-1-(5-(5-((R)-2-(2,5-difluorophenyl)pyrrolidin-1-yl)pyrazolo[1,5-a]pyrimidin-3-yl)-4H-1,2,4-triazol-3-yl)ethan-1-amine] |
| – | 97.4% | 0.111 | 91.3% | 0.0676 | 89.7% | 0.116 | 7.42 nM | C[C@@H](CO)c1nnc(-c2cnn3ccc(N4CCC[C@@H]4c4cc(F)ccc4F)nc23)[nH]1 [Compound 39, (R)-2-(5-(5-((R)-2-(2,5-difluorophenyl)pyrrolidin-1-yl)pyrazolo[1,5-a]pyrimidin-3-yl)-4H-1,2,4-triazol-3-yl)propan-1-ol] |

Continued, compound first:

| Compound | degree of plasma protein binding (in words) ([1]; as shown in Table 16) | recovery at 6 h, 1 μM [1] | fraction unbound at 6 h, 1 μM [1] | recovery at 6 h, 1 μM [2] | fraction unbound at 6 h, 1 μM [2] | recovery at 6 h, 1 μM [3] | fraction unbound at 6 h, 1 μM [3] | IC50 [4] |
| --- | --- | --- | --- | --- | --- | --- | --- | --- |
| Cc1nnc(-c2cnn3ccc(N4CCCC4c4cc(F)ccc4F)nc23)[nH]1 (stereo not shown) [Comparative compound A, 5-[2-(2,5-Difluorophenyl)pyrrolidin-1-yl]-3-(5-methyl-1H-1,2,4-triazol-3-yl)pyrazolo[1,5-a]pyrimidine, reference compound] | high degree of plasma protein binding | 93.8% | 0.0323 | 89.4% | 0.0488 | 93.8% | 0.0729 | – |
| CC(C)(O)Cc1nnc(-c2cnn3ccc(N4CCC[C@@H]4c4cc(F)ccc4F)nc23)[nH]1 [Compound 30, (R)-1-(5-(5-(2-(2,5-difluorophenyl)pyrrolidin-1-yl)pyrazolo[1,5-a]pyrimidin-3-yl)-4H-1,2,4-triazol-3-yl)-2-methylpropan-2-ol] | – | 90.7% | 0.139 | 90% | 0.0887 | 92.5% | 0.174 | 13.8 nM |
| OC1(c2nnc(-c3cnn4ccc(N5CCC[C@@H]5c5cc(F)ccc5F)nc34)[nH]2)CCC1 [Compound 23, (R)-1-(5-(5-(2-(2,5-difluorophenyl)pyrrolidin-1-yl)pyrazolo[1,5-a]pyrimidin-3-yl)-4H-1,2,4-triazol-3-yl)cyclobutan-1-ol] | – | – | 0.0604 | – | 0.0397 | – | 0.0699 | 20.9 nM |
| OC1CC(c2nnc(-c3cnn4ccc(N5CCC[C@@H]5c5cc(F)ccc5F)nc34)[nH]2)C1 (stereo partly drawn) [Compound 31, (R)-3-(5-(5-(2-(2,5-difluorophenyl)pyrrolidin-1-yl)pyrazolo[1,5-a]pyrimidin-3-yl)-4H-1,2,4-triazol-3-yl)cyclobutan-1-ol] | – | 96.8% | 0.121 | 94.2% | 0.0998 | 98.9% | 0.131 | 3.88 nM |
| CC(C)(O)c1nnc(-c2cnn3ccc(N4CCC[C@@H]4c4cc(F)ccc4F)nc23)[nH]1 [Compound 7, (R)-2-(5-(5-(2-(2,5-difluorophenyl)pyrrolidin-1-yl)pyrazolo[1,5-a]pyrimidin-3-yl)-4H-1,2,4-triazol-3-yl)propan-2-ol] | – | 96.3% | 0.0988 | 89.4% | 0.0929 | 90.8% | – | 8.17 nM |
